# According to patent publication US20240307335A1, “IRG Blockade to Armor CAR T Cells Against Myeloid Dysfunction” (ROSWELL PARK CANCER INSTITUTE CORPORATION, priority 2023, published 2024):
# Columns and labels:
# Type in all cases: cell-based, mouse
# iNOS = assay: Griess assay of NO levels in coculture supernatants; conditions: L-NIL 50 μM at 48 h, anti-IFN-γ 10 μg/mL at 44 h
# Procedure: Griess assay: 2×10^4 Eμ-myc cells and 2×10^4 CAR T cells were cocultured in the presence or absence of 0.5×10^4 macrophages in a 96-well plate in 120 μl of media. Coculture supernatants were harvested, and nitric oxide levels were measured using Griess reagent system (Promega) according to manufacturer's instructions. Absorbance was read at 560 nm using microplate reader (GloMax, Promega), and NO2 concentrations were determined by standard curve. Standard curve was prepared with diluting 0.1M sodium nitrite standard (provided in the kit) with the culture media used for experiments.
# [1] = tested on: CAR T cells cocultured with fresh Eμ-myc cells; assay: Cytokine secretion assay (Ella automated ELISA) with CAR T cells isolated from initial coculture; conditions: CAR T cells isolated after 48 h coculture with imMac with agent (L-NIL 50 μM, supernatants at 36 h; anti-IFN-γ 10 μg/mL, at 24 h)
# Procedure: CAR T cell isolation from initial coculture for subsequent downstream assays: 1×10^6 CAR T cells and 1×10^6 Eμ-myc-GFP-FFL cells were cocultured in the absence or presence of 0.25×10^6 macrophages in a 6-well plate in 6 ml of media for 48 h. After initial coculture, cells were harvested, and T cells were isolated using Mouse T Cell Isolation Kit ([…] Technologies). […] Percentage of CAR-expressing T cells was determined with flow cytometry and were subsequently used for downstream assays.
# Cytokine secretion assay: 2×10^4 Eμ-myc cells were cocultured with 2×10^4 CAR T cells in a 96-well plate in a total volume of 100 μl of media. Supernatants were collected and analyzed for IFN-γ and TNF-α secretion using Ella automated immunoassay system (Proteinsimple Bio-techne) according to manufacturer's instructions.
# CAR T cells = assay: Global metabolomics on CAR T cells from cocultures; conditions: L-NIL (50 PM); coculture 48 h
# Procedure: CAR T cell isolation from initial coculture for subsequent downstream assays: 1×10^6 CAR T cells and 1×10^6 Eμ-myc-GFP-FFL cells were cocultured in the absence or presence of 0.25×10^6 macrophages in a 6-well plate in 6 ml of media for 48 h. After initial coculture, cells were harvested, and T cells were isolated using Mouse T Cell Isolation Kit (STEMCELL Technologies). T cell purity was 100% as tested by flow cytometry. Percentage of CAR-expressing T cells was determined with flow cytometry and were subsequently used for downstream assays.
# Global metabolomic profiling and 13C6-labeled glucose tracing of CAR T cells, 1×10^6 T cells were resuspended in either RPMI-1640 medium (RPMI+10% heat-inactivated dialyzed FBS) or ^13C6-glucose substituted RPMI-1640 medium (glucose-free RPMI+10% heat-inactivated dialyzed FBS+11.1 mM ^13C6-glucose). After 4 h incubation, cells were collected, rapidly centrifuged (17,000×g, 10 sec, room temperature), and medium was removed. T cells were washed with 1 ml of ice-cold PBS, and metabolites were extracted with 300 μl of 80% methanol via incubation at −80° C. for 15 min. Samples were centrifuged (17,000×g, 20 min, 4° C.), and supernatants were transferred to an Eppendorf tube and dried in a vacuum evaporator overnight. The dried extracts were resuspended in 20 μl of aqueous 50% methanol, clarified by centrifugation (17,000×g, 20 min, room temperature), and analyzed by LC-HRMS.
# LC-HRMS analysis was performed on a Vanquish UPLC coupled with a Q-Exactive HF mass spectrometer, employing the same conditions as the previously established methods 76. A ZIC-pHILIC LC column (4.6 mm inner diameter×150 mm length, […], MilliporeSigma, Burlington, MA) with a ZIC-pHILIC guard column (4.6 mm inner diameter×20 mm length, MilliporeSigma, Burlington, MA) was used for chromatographic separation at a column temperature of 30° C. […]
# [2] = tested on: arginine metabolism by imMac; assay: Global metabolomics (LC-MS) of coculture supernatants; conditions: L-NIL (50 PM)
# Procedure: Metabolomics and ^13C6-labeled glucose tracing analyses: For global metabolomics analysis of cell-cultured medium, the cell-free medium was obtained by performing rapid centrifugation (17,000×g, 10 sec, room temperature) to collect the supernatant. The metabolites present in 20 μl of the cell-cultured medium were then extracted using 80 μl of ice-cold MeOH. Following a 30 min incubation on ice and subsequent centrifugation (17,000×g, 20 min, 4° C.), the supernatant was subjected to LC-HRMS analysis.
# LC-HRMS analysis was performed on a Vanquish UPLC coupled with a Q-Exactive HF mass spectrometer, employing the same conditions as the previously established methods 76. A ZIC-pHILIC LC column (4.6 mm inner diameter×150 mm length, […], MilliporeSigma, Burlington, MA) with a ZIC-pHILIC guard column (4.6 mm inner diameter×20 mm length, MilliporeSigma, Burlington, MA) was used for chromatographic separation at a column temperature of 30° C. The mobile phases included 10 mM (NH4)2CO3 and 0.05% NH40H in H2O for mobile phase A, and […]. The LC gradient conditions were as follows: 0 to 13 min: a decreasing of 80% to 20% of mobile phase B, 13 to 15 min: 20% of mobile phase B. The ionization was set to negative mode, with the MS scan range set to 60 to 1000 m/z. The mass resolution was 70,000, and the AGC target was 1×106. The sample loading volume was 5 μl. The unlabeled or ^13C-labeled metabolite peaks were extracted using EL-Maven with a metabolite standard-based in-house library. For global metabolomic profiling, peak areas of metabolites were normalized by the median value of the total for identified metabolite peak areas in each sample. For the ^13C-labeled metabolite peaks, the natural isotope peak area was corrected using IsoCor (Version 2.2).
smiles,measurement,setting,value
"CC(=N)NCCCC[C@H](N)C(=O)O.Cl [L-NIL, N^6-(1-Iminoethyl)-lysine, hydrochloride]",production of NO in cocultures with imMac,iNOS,attenuated
same,production of effector cytokine IFN-γ by CAR T cells,[1],preserved
same,production of effector cytokine TNF-α by CAR T cells,[1],preserved
same,depletion of dihydroxyacetone phosphate (DHAP) in CAR T cells cocultured with imMac,CAR T cells,reversal
same,"depletion of fructose 1,6-bisphosphate (F1,6BP) in CAR T cells cocultured with imMac",CAR T cells,reversal
same,depletion of glyceraldehyde 3-phosphate (G3P) in CAR T cells cocultured with imMac,CAR T cells,reversal
same,production of citrulline in cocultures with imMac,[2]; coculture supernatants,attenuated
same,levels of arginine in coculture supernatants,[2]; cocultures with imMac,remained comparable
same,levels of ornithine in coculture supernatants,[2]; cocultures with imMac,remained comparable
